# Results as given in patent publication US4721775A, “Effective peptides related to the luteinizing hormone releasing hormone from L-amino acids” (Board of Regents, The University of Texas System, priority 1985, dated 1988).
# Values joined by “and” are separate entries in the source; they are usually repeats but may differ in a detail not shown here. Equal values may be shown once. “Also recorded” adds a separate entry of the source. Non-standard residues stand in square brackets, D forms with d. Residues, ends and D or L forms follow the SMILES beside them. pGlu = O=C1CC[C@@H](C(=O)O)N1
# Legend:
# [1] = system: rat pituitary cells; details: cited from earlier work; for activity to release FSH relative to P/O LHRH: in vitro, rat pituitary cells, Miyamoto et al. (b); for activities to release FSH compared with LHRH (Table I): fraction of the activities of LHRH or words
# [2] = system: release of FSH; assay: Release of FSH in rats after sc injection; assay type: in vivo; details: for release of FSH: in our assays
# Description: (§1) The data on the release of LH and FSH in rats by modifications of LHRH with one structural change are in Table II.
# (§2) Exclusive of the salmon-LHRH, only one of the six decapeptides with two structural changes had significant activity.
# [3] = system: rat anterior pituitary cells in primary culture; details: cited from earlier work; for activity (potency) to release LH relative to P/O LHRH: in vitro, rat pituitary cells, Sherwood et al. (a), Miyamoto et al. (b); for activities to release LH compared with LHRH (Table I): fraction of the activities of LHRH or words
# [4] = system: release of FSH; details: comparison with purified hypothalamic fractions; cited from earlier work
# [5] = system: release of LH; assay: Release of LH in rats after sc injection; assay type: in vivo; details: for release of LH compared with LHRH: sc injection, dose and time as stated in the source; for release of LH: in our assays
# Description: as §1, §2
# [6] = system: release of FSH; assay: Release of FSH in rats after sc injection; assay type: in vivo; details: dose and time as stated in the source
# [7] = biological target: T1, receptor identified with LHRH (Rattus norvegicus, UniProt P30969); assay: Radio receptor assay (RRA) with 125I-D-Lys6-LHRH as ligand; assay type: binding; details: relative to LHRH
# T1 construct: in tissue there is very likely a different receptor; from tissue
# T1 sequence (P30969 1-327): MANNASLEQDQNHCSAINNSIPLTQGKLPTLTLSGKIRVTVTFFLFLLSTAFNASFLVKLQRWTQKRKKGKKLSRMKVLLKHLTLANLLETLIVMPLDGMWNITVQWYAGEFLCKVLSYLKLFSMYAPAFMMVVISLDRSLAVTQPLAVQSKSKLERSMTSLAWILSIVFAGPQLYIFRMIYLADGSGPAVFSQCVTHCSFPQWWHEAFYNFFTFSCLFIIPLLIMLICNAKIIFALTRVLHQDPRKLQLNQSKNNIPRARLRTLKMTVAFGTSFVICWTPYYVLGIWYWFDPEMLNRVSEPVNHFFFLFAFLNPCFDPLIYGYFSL
# Description: Data are included in Table II, III, IV and V from radio receptor assays as described by Heber et al. (Am. J. Physiol. […]: E227-E230 (1978)).
# For the radio receptor assay, labelled ^125 I-D-Lys^6 -LHRH, was utilized as the ligand. The results are expressed as the relative inhibitory binder of the analog to LHRH at ID50 values.
# [8] = system: release of LH; details: at 1000 and 5000 ng; cited from earlier work
# [9] = system: release of FSH; details: at 1000 and 5000 ng; cited from earlier work
# [10] = 15 min. after sc injection, 50 ng, LHRH = 100
# [11] = 15 min. after sc injection, 100 ng, LHRH = 100
# [12] = 15 min. after sc injection, 100 ng, experiment marked *
# [13] = 15 min. after sc injection, 100 ng, experiment marked *, LHRH* = 100
# [14] = 15 min. after sc injection, 1000 ng, LHRH = 100
# [15] = 15 min. after sc injection, 1000 ng, experiment marked *
# [16] = 30 min. after sc injection, 50 ng, LHRH = 100
# [17] = 30 min. after sc injection, 100 ng, LHRH = 100
# [18] = 30 min. after sc injection, 1000 ng, LHRH = 100
# [19] = 60 min. after sc injection, 300 ng, LHRH = 100
# [20] = 60 min. after sc injection, 3000 ng, LHRH = 100
# [21] = release 15 min. after sc injection, dosage of peptide 50 ng
# [22] = release 15 min. after sc injection, dosage of peptide 100 ng
# [23] = release 15 min. after sc injection, dosage of peptide 1000 ng
# [24] = release 30 min. after sc injection, dosage of peptide 50 ng
# [25] = release 30 min. after sc injection, dosage of peptide 100 ng
# [26] = release 30 min. after sc injection, dosage of peptide 1000 ng
# [27] = release 60 min. after sc injection, dosage of peptide 300 ng
# [28] = release 60 min. after sc injection, dosage of peptide 3000 ng
compound,measurement,setting,value
"CC(C)C[C@H](NC(=O)CNC(=O)[C@H](Cc1ccc(O)cc1)NC(=O)[C@H](CO)NC(=O)[C@H](Cc1c[nH]c2ccccc12)NC(=O)[C@H](Cc1c[nH]cn1)NC(=O)[C@@H]1CCC(=O)N1)C(=O)N[C@@H](CCCNC(=N)N)C(=O)N1CCC[C@H]1C(=O)NCC(N)=O [LHRH, pGlu--His--Trp--Ser--Tyr--Gly--Leu--Arg--Pro--Gly--NH2, reference compound]",activity to release FSH relative to P/O LHRH,[1],100%
same,FSH % change,[2]; [10],100%
same,FSH % change,[2]; [11],100%
same,FSH,[2]; [12],455 ng/mL
same,FSH % change,[2]; [13],100%
same,FSH % change,[2]; [14],100%
same,FSH,[2]; [15],576 ng/mL
same,FSH % change,[2]; [16],100%
same,FSH % change,[2]; [17],100%
same,FSH % change,[2]; [18],100%
same,FSH % change,[2]; [19],100%
same,FSH % change,[2]; [20],100%
same,FSH,[2]; [21],550 ng/mL
same,FSH,[2]; [22],465 ng/mL
same,FSH,[2]; [23],483 ng/mL
same,FSH,[2]; [24],515 ng/mL
same,FSH,[2]; [25],494 ng/mL and 434 ng/mL
same,FSH,[2]; [26],691 ng/mL and 1010 ng/mL
same,FSH,[2]; [27],596 ng/mL and 554 ng/mL
same,FSH,[2]; [28],1173 ng/mL and 1501 ng/mL
same,activity (potency) to release LH relative to P/O LHRH,[3],100%
same,FSH released,[4],"ca. 18,000 ng/ml"
same,LH % change,[5]; [10],100%
same,LH % change,[5]; [11],100%
same,LH,[5]; [12],21 ng/mL
same,LH % change,[5]; [13],100%
same,LH % change,[5]; [14],100%
same,LH,[5]; [15],39 ng/mL
same,LH % change,"[5]; 15 min. after sc injection, 1000 ng, experiment marked *, LHRH* = 100",100%
same,LH % change,[5]; [16],100%
same,LH % change,[5]; [17],100%
same,LH % change,[5]; [18],100%
same,LH % change,[5]; [19],100%
same,LH % change,[5]; [20],100%
same,LH,[5]; [21],16 ng/mL
same,LH,[5]; [22],24 ng/mL
same,LH,[5]; [23],57 ng/mL
same,LH,[5]; [24],18 ng/mL
same,LH,[5]; [25],11 ng/mL
same,LH,[5]; [27],11 ng/mL and 17 ng/mL
same,LH,[5]; [28],82 ng/mL and 113 ng/mL
"NC(=O)CC[C@H](NC(=O)[C@H](Cc1c[nH]c2ccccc12)NC(=O)CNC(=O)[C@H](Cc1c[nH]cn1)NC(=O)[C@H](CO)NC(=O)[C@H](Cc1c[nH]c2ccccc12)NC(=O)[C@H](Cc1c[nH]cn1)NC(=O)[C@@H]1CCC(=O)N1)C(=O)N1CCC[C@H]1C(=O)NCC(N)=O [[His^5 Trp^7 Gln^8]--LHRH, p-Glu His Trp Ser His Gly Trp Gln Pro Gly-NH2] ([pGlu]HWSHGWQPG-NH2)",release of FSH compared with LHRH,[6],as much FSH at the higher dosage of 3000 ng as LHRH; also recorded: released equivalent levels of LH and FSH when monitored 15 minutes after injection; also recorded: released as much FSH as LHRH
same,FSH % change,[2]; [19],68% and 67.8%
same,FSH,[2]; [22],403 ng/mL
same,FSH,[2]; [23],486 ng/mL
same,FSH,[2]; [27],404 ng/mL
same,FSH,[2]; [28],1161 ng/mL
same,"level at which effectiveness in the radioreceptor assay for LHRH is achieved, times that of LHRH",[7],46 times
same,LH % change,[5]; [19],46%
same,LH % change,[5]; [20],65%
same,LH,[5]; [22],17 ng/mL
same,LH,[5]; [23],66 ng/mL
same,LH,[5]; [27],5 ng/mL
same,LH,[5]; [28],53 ng/mL
same,release of LH compared with LHRH,[5],"released less LH; also recorded: released equivalent levels of LH and FSH when monitored 15 minutes after injection; also recorded: as effective at 100 ng as LHRH; also recorded: about two times as effective as [His^5, Trp^7 Leu^8 ]-LHRH"
"NC(=O)CNC(=O)[C@@H]1CCCN1C(=O)[C@H](Cc1ccc(O)cc1)NC(=O)[C@H](Cc1c[nH]c2ccccc12)NC(=O)CNC(=O)[C@H](Cc1c[nH]cn1)NC(=O)[C@H](CO)NC(=O)[C@H](Cc1c[nH]c2ccccc12)NC(=O)[C@H](Cc1c[nH]cn1)NC(=O)[C@@H]1CCC(=O)N1 [[His^5 Trp^7 Tyr^8] (Chicken II), pGlu--His--Trp--Ser--His--Gly--Trp--Tyr--Pro--Gly--NH2, reference compound] ([pGlu]HWSHGWYPG-NH2)",activities to release FSH compared with LHRH (Table I),[1],about 1/3
same,activity to release FSH relative to P/O LHRH,[1],41%
same,FSH % change,[2]; [17],62%
same,FSH % change,[2]; [19],58%
same,FSH % change,[2]; [20],55%
same,release of FSH,[2]; dose level 100 ng,62%
same,release of FSH,[2]; dose level 1000 ng,86%
same,FSH,[2]; [25],305 ng/mL
same,FSH,[2]; [26],596 ng/mL
same,FSH,[2]; [27],344 ng/mL
same,FSH,[2]; [28],644 ng/mL
same,activities to release LH compared with LHRH (Table I),[3],about 1/3
same,activity (potency) to release LH relative to P/O LHRH,[3],32%
same,LH % change,[5]; [17],18%
same,LH % change,[5]; [18],39%
same,LH % change,[5]; [19],32%
same,LH % change,[5]; [20],10%
same,release of LH,[5]; dose level 100 ng,18%
same,release of LH,[5]; dose level 1000 ng,30%
same,LH,[5]; [25],2 ng/mL
same,LH,[5]; [26],14 ng/mL
same,LH,[5]; [27],3.5 ng/mL
same,LH,[5]; [28],8.4 ng/mL
"CC(C)C[C@H](NC(=O)CNC(=O)[C@H](Cc1ccc(O)cc1)NC(=O)[C@H](CO)NC(=O)[C@H](Cc1c[nH]c2ccccc12)NC(=O)[C@H](Cc1c[nH]cn1)NC(=O)[C@@H]1CCC(=O)N1)C(=O)N[C@@H](CC(C)C)C(=O)N1CCC[C@H]1C(=O)NCC(N)=O [[Leu^8]--LHRH, p-Glu His Trp Ser Tyr Gly Leu Leu Pro Gly-NH2, reference compound]",release of FSH compared with LHRH,"[2]; sc injection, dose and time as stated in the source",relatively low activities
same,release of LH compared with LHRH,[5],relatively low activities
same,activity for LH release,[8],Inactive
same,activity for FSH release,[9],Inactive
"CC(C)C[C@H](NC(=O)[C@H](Cc1c[nH]c2ccccc12)NC(=O)CNC(=O)[C@H](Cc1ccc(O)cc1)NC(=O)[C@H](CO)NC(=O)[C@H](Cc1c[nH]c2ccccc12)NC(=O)[C@H](Cc1c[nH]cn1)NC(=O)[C@@H]1CCC(=O)N1)C(=O)N1CCC[C@H]1C(=O)NCC(N)=O [[Trp^7 Leu^8]--LHRH, pGlu--His--Trp--Ser--Tyr--Gly--Trp--Leu--Pro--Gly--NH2, reference compound] ([pGlu]HWSYGWLPG-NH2)",activities to release FSH compared with LHRH (Table I),[1],extremely low activities
same,FSH % change,[2]; [20],22%
same,FSH,[2]; [28],258 ng/mL
same,activities to release LH compared with LHRH (Table I),[3],extremely low activities
same,activity (potency) to release LH relative to P/O LHRH,[3],2-3%
same,LH % change,[5]; [20],3.0%
same,LH,[5]; [28],2.5 ng/mL
